Patent publication US20230149507A1, “TREATMENT OF ALT CANCERS” (INSTITUTO DE MEDICINA MOLECULAR JOÃO LOBO ANTUNES, priority 2019, published 2023)

Assays:
U-2 OS cells [1] = assay: Single molecule analysis of telomeric extension events (SMAT) in cells overexpressing FANCM variants; assay type: cell-based, human; details: overexpression
From the text: (a) Schematic of FANCM domain interactions, mutations or deletions. For clarity, domains have been color coded by functional role (bottom panel). (b) Quantitation of metaphase-TIFs in U-2 OS cells stably overexpressing wild-type (FANCM+) or FANCM mutants. Scatterplot bars represent the mean±SEM. Out of 3 experiments, n≥110 metaphases scored for each mutant, *p<0.05, **p<0.005, Mann-Whitney test. (c) Quantitation of fragile telomeres in U-2 OS cells stably overexpressing wild-type (FANCM+) or FANCM mutants. Scatterplot bars represent the mean±SEM. Out of 3 experiments, n>100 metaphases scored for each mutant, *p<0.05, **p<0.005, Mann-Whitney test. (d) Representative dot blots and quantitation of C-circle assays in U-2 OS cells stably overexpressing wild-type (FANCM+) or FANCM domain mutants. C-circles were normalized to the mean of vector control. Error bars represent mean±SEM from n=3 experiments, *p<0.05, **p<0.005, Student's t-test. […]
Cells were labelled with 100 μM CIdU for 5 h prior to harvesting by trypsinization. […] Halogenated nucleotides were detected with a rat anti-CldU monoclonal antibody (Accurate) and Alexa Fluor 488-conjugated goat anti-rat antibody (Molecular Probes). Telomere fibers were detected on a Zeiss Axio Imager microscope with ApoTome module and analyzed with Zen software (Zeiss).

U-2 OS cells [2] = assay: Fragile telomeres in cells overexpressing FANCM variants; assay type: cell-based, human; details: stable overexpression
From the text: (a) Schematic of FANCM domain interactions, mutations or deletions. For clarity, domains have been color coded by functional role (bottom panel). (b) Quantitation of metaphase-TIFs in U-2 OS cells stably overexpressing wild-type (FANCM+) or FANCM mutants. Scatterplot bars represent the mean±SEM. Out of 3 experiments, n≥110 metaphases scored for each mutant, *p<0.05, **p<0.005, Mann-Whitney test. (c) Quantitation of fragile telomeres in U-2 OS cells stably overexpressing wild-type (FANCM+) or FANCM mutants. Scatterplot bars represent the mean±SEM. Out of 3 experiments, n>100 metaphases scored for each mutant, *p<0.05, **p<0.005, Mann-Whitney test. (d) Representative dot blots and quantitation of C-circle assays in U-2 OS cells stably overexpressing wild-type (FANCM+) or FANCM domain mutants. C-circles were normalized to the mean of vector control. Error bars represent mean±SEM from n=3 experiments, *p<0.05, **p<0.005, Student's t-test. (e) Single molecule analysis of telomeric extension events (top panel) and length of extension events (bottom panel) in U-2 OS cells stably overexpressing wild-type (FANCM+) or FANCM domain mutants. Error bars represent mean±SEM of n≥350 fibers out of 3 experiments, *p<0.05, **p<0.005, Student's t-test.
Empty vector and wild-type FANCM (pCMV6-Myc-DDK) constructs were obtained from Origene Technologies. Wild type FANCM (SEQ ID NO: 2) and FANCM mutants (SEQ ID NOs: 19 to 28) were cloned into the pLenti-C-Myc-DDK-IRES-Neo backbone (Origene Technologies) by restriction enzyme subcloning of gene blocks synthesized by Integrated DNA Technologies (IDT). Lentivirus was produced by the Vector and Genome Engineering Facility (Children's Medical Research Institute). For stable overexpression, cells were transduced with lentivirus, allowed to recover for 24 h, and subject to G418 selection. Cells were maintained in G418 to ensure sustained overexpression.
Indirect IF and telomere FISH were performed on both interphase nuclei and metaphase spreads. For interphase IF experiments, cells were grown on coverslips or LabTek chamber slides (Thermo Scientific). Slides were prepared as described in Sobinoff et al., 2017. Cells on coverslips were washed twice with PBS, permeabilized with KCM buffer (120 mM KCl, 20 mM NaCl, 10 mM Tris pH 7.5, 0.1% Triton), washed again with PBST and PBS, then fixed with ice-cold 4% formaldehyde PBS solution at room temperature for 10 min. Coverslips were blocked with antibody-dilution buffer (20 mM Tris-HCl, pH 7.5, 2% (w/v) BSA, 0.2% (v/v) fish gelatin, 150 mM NaCl, 0.1% (v/v) Triton X-100 and 0.1% (w/v) sodium azide) and 0.1 mg/ml RNaseA for 30 min at 37° C. […]

Substance | number of telomere extension events (U-2 OS cells [1]) | number of fragile telomeres (telomere fragility) (U-2 OS cells [2])
FF>AA: FANCM mutant (SEQ ID NO: 25), double substitution F1232A/F1236A within the MM2 domain | significant increase in the number of extension events | significantly increased
K117R: FANCM mutant (SEQ ID NO: 20) substituted at K117R, DEAH domain disrupted |  | failed to suppress the phenotypes
